Test results published in US12233081B2, “Hygromycin a compounds and methods of treating spirochete diseases” (priority 2018, dated 2025).
≈ marks a conversion by molar mass, not a printed value.

Tests used:
Treponema pallidum = assay: microbroth dilution MIC; type: cell-based
Bacteroides fragilis = assay: microbroth dilution MIC; type: cell-based
Excerpt: (§1) AH MIC testing of bacteria followed the Clinical and Laboratory Standards Institute (CLSI) guidelines for antimicrobial testing of aerobic, bacteria (Methods for Dilution Antimicrobial Susceptibility Tests for Bacteria that Grow Aerobically; Approved Standard—Tenth Edition, M07-A10; Performance Standards for Antimicrobial Susceptibility Testing; Twenty-fifth Informational Supplement, M100-S25), and guidelines for antimicrobial testing of anaerobic bacteria (Methods for Antimicrobial Susceptibility Testing of Anaerobic Bacteria, 8th Edition. M11-A8). Compounds of the invention can also be tested for activity as described herein.
(§2) Briefly, the microbroth dilution MIC method was used to quantitatively measure the in vitro antibacterial activity of hygromycin A against the given bacterial isolates shown in the table below. S. aureus, E. coli and P. aeruginosa were grown in cation-adjusted Mueller-Hinton broth, anaerobes were grown in Schaedler Anaerobe Media, Borrelia species were grown in BSK-II medium. Bacteria from liquid cultures were diluted into the assay plate to achieve 5×10^5 CFU/mL. Assays plates were prepared by 2-fold dilution of compound across the plate and included a positive growth control. […] Borrelia species were incubated in a microaerophilic chamber at 34° C. for 5-7 days and scored visually for medium color change from pink to yellow of the phenol red present in the medium. The lowest concentration of antibiotics that pre vented color change was interpreted, as the MIC.

Bifidobacterium longum = assay: microbroth dilution MIC; type: cell-based
Excerpt: as §1, §2

Borrelia afzelii = assay: microbroth dilution MIC; type: cell-based; settings: Borreliella afzelii
Excerpt: as §1, §2

Borrelia bavariensis = assay: microbroth dilution MIC; type: cell-based; settings: Borreliella bavariensis
Excerpt: as §1, §2

Borrelia burgdorferi = assay: microbroth dilution MIC; type: cell-based; settings: Borreliella burgdorferi
Excerpt: as §1, §2

Borrelia garinii = assay: microbroth dilution MIC; type: cell-based; settings: Borreliella garinii
Excerpt: as §1, §2

Borrelia turcica = assay: microbroth dilution MIC; type: cell-based
Excerpt: as §1, §2

E. coli = assay: microbroth dilution MIC; type: cell-based; settings: Escherichia coli
Excerpt: as §1, §2

Enterococcus faecalis = assay: microbroth dilution MIC; type: cell-based
Excerpt: as §1, §2

Lactobacillus reuteri = assay: microbroth dilution MIC; type: cell-based; settings: Limosilactobacillus reuteri
Excerpt: as §1, §2

P. aeruginosa = assay: microbroth dilution MIC; type: cell-based; settings: Pseudomonas aeruginosa
Excerpt: as §1, §2

S. aureus = assay: microbroth dilution MIC; type: cell-based; settings: Staphylococcus aureus
Excerpt: as §1, §2

gut microbiome = gut microbiome 16S rRNA sequencing of stool of infected, treated mice; settings: for Bacteroidaceae change in percent relative abundance / Streptococcaceae change in percent relative abundance: 50 mg/kg
[1] = IP 50 mg/kg every 12 hours for 5 days
[2] = oral 50 mg/kg every 12 hours for 5 days
[3] = oral 50 mg/kg every 12 hours for 5 days, listed as Hyg

CC(=O)[C@H]1O[C@@H](Oc2ccc(/C=C(\C)C(=O)N[C@@H]3[C@H](O)[C@@H](O)[C@H]4OCO[C@H]4[C@@H]3O)cc2O)[C@@H](O)[C@@H]1O [Hygromycin A]
MIC (Treponema pallidum): 0.03 µg/mL (≈ 0.0587 µM) | MIC (Bacteroides fragilis): 128 µg/mL (≈ 250 µM) | MIC (Bifidobacterium longum): 8 µg/mL (≈ 15.6 µM) | MIC (Borrelia afzelii): 0.25 µg/mL (≈ 0.489 µM) | MIC (Borrelia bavariensis): 0.25 µg/mL (≈ 0.489 µM) | MIC (Borrelia burgdorferi): 0.12 µg/mL (≈ 0.235 µM) | MIC (Borrelia garinii): 0.25 µg/mL (≈ 0.489 µM) | MIC (Borrelia turcica): 0.25 µg/mL (≈ 0.489 µM) | MIC (E. coli): 1000 µg/mL (≈ 1960 µM) | MIC (Enterococcus faecalis): 128 µg/mL (≈ 250 µM) | MIC (Lactobacillus reuteri): 32 µg/mL (≈ 62.6 µM) | MIC (P. aeruginosa): > 1000 µg/mL | MIC (S. aureus): 32 µg/mL (≈ 62.6 µM) | Brucellaceae change in percent relative abundance (gut microbiome; [1]): 0.000% | Francisellaceae change in percent relative abundance (gut microbiome; [1]): −0.001% | Aerococcaceae change in percent relative abundance (gut microbiome; [2]): 0.000% | Anaerolineaceae change in percent relative abundance (gut microbiome; [2]): 0.000% | Anaeroplasmataceae change in percent relative abundance (gut microbiome; [2]): −0.016% | Anaplasmataceae change in percent relative abundance (gut microbiome; [2]): 0.000% | Aspergillaceae change in percent relative abundance (gut microbiome; [2]): 0.000% | Asteraceae change in percent relative abundance (gut microbiome; [2]): 0.000% | Bacillaceae change in percent relative abundance (gut microbiome; [2]): −0.009% | Bacillales change in percent relative abundance (gut microbiome; [2]): −0.092% | Bifidobacteriaceae change in percent relative abundance (gut microbiome; [2]): 0.013% | Brucellaceae change in percent relative abundance (gut microbiome; [2]): 0.000% | Camobacteriaceae change in percent relative abundance (gut microbiome; [2]): 0.005% | Chitinophagaceae change in percent relative abundance (gut microbiome; [2]): 0.000% | Christensenellaceae change in percent relative abundance (gut microbiome; [2]): 0.000% | Clostridiaceae change in percent relative abundance (gut microbiome; [2]): −5.257% | Clostridiales change in percent relative abundance (gut microbiome; [2]): −0.174% | Clostridiales family xi. incertae sedis change in percent relative abundance (gut microbiome; [2]): −0.032% | Clostridiales family xiii. incertae sedis change in percent relative abundance (gut microbiome; [2]): −0.007% | Coriobacteriaceae change in percent relative abundance (gut microbiome; [2]): −0.038% | Corynebacteriaceae change in percent relative abundance (gut microbiome; [2]): 0.000% | Cytophagaceae change in percent relative abundance (gut microbiome; [2]): −0.001% | Deferribacteraceae change in percent relative abundance (gut microbiome; [2]): −1.462% | Defluviitaleaceae change in percent relative abundance (gut microbiome; [2]): −0.002% | Desulfobacteraceae change in percent relative abundance (gut microbiome; [2]): −0.001% | Enterobacteriaceae change in percent relative abundance (gut microbiome; [2]): −0.026% | Enterococcaceae change in percent relative abundance (gut microbiome; [2]): 6.546% | Erysipelotrichaceae change in percent relative abundance (gut microbiome; [2]): 1.506% | Eubacteriaceae change in percent relative abundance (gut microbiome; [2]): −6.405% | Fabaceae change in percent relative abundance (gut microbiome; [2]): 0.000% | Flavobacteriaceae change in percent relative abundance (gut microbiome; [2]): −0.001% | Francisellaceae change in percent relative abundance (gut microbiome; [2]): 0.000% | Fusobacteriaceae change in percent relative abundance (gut microbiome; [2]): 0.000% | Gammaproteobacteria change in percent relative abundance (gut microbiome; [2]): −0.025% | Gloeobacteraceae change in percent relative abundance (gut microbiome; [2]): −0.013% | Gracilibacteraceae change in percent relative abundance (gut microbiome; [2]): −0.072% | Halomonadaceae change in percent relative abundance (gut microbiome; [2]): 0.000% | Hylidae change in percent relative abundance (gut microbiome; [2]): 0.000% | Kopriimonadaceae change in percent relative abundance (gut microbiome; [2]): 0.000% | Lachnospiraceae change in percent relative abundance (gut microbiome; [2]): −8.372% | Lactobacillaceae change in percent relative abundance (gut microbiome; [2]): 22.074% | Leuconostocaceae change in percent relative abundance (gut microbiome; [2]): 0.000% | Methylobacteriaceae change in percent relative abundance (gut microbiome; [2]): 0.000% | Microbacteriaceae change in percent relative abundance (gut microbiome; [2]): 0.000% | Mucoraceae change in percent relative abundance (gut microbiome; [2]): 0.000% | Nostocaceae change in percent relative abundance (gut microbiome; [2]): 0.000% | Onagraceae change in percent relative abundance (gut microbiome; [2]): 0.000% | Oscillatoriales change in percent relative abundance (gut microbiome; [2]): 0.001% | Oscillospiraceae change in percent relative abundance (gut microbiome; [2]): −0.009% | Paenibacillaceae change in percent relative abundance (gut microbiome; [2]): −0.002% | Pasteurellaceae change in percent relative abundance (gut microbiome; [2]): 0.000% | Pelobacteraceae change in percent relative abundance (gut microbiome; [2]): 0.000% | Peptococcaceae change in percent relative abundance (gut microbiome; [2]): −0.835% | Peptoniphilaceae change in percent relative abundance (gut microbiome; [2]): 0.000% | Peptostreptococcaceae change in percent relative abundance (gut microbiome; [2]): −0.095% | Physalacriaceae change in percent relative abundance (gut microbiome; [2]): 0.000% | Poaceae change in percent relative abundance (gut microbiome; [2]): 0.007% | Polyangiaceae change in percent relative abundance (gut microbiome; [2]): 0.000% | Porphyromonadaceae change in percent relative abundance (gut microbiome; [2]): −23.435% | Prevotellaceae change in percent relative abundance (gut microbiome; [2]): −0.285% | Pseudomonadaceae change in percent relative abundance (gut microbiome; [2]): 0.000% | Rhizobiaceae change in percent relative abundance (gut microbiome; [2]): 0.000% | Rhodobacteraceae change in percent relative abundance (gut microbiome; [2]): 0.000% | Rikenellaceae change in percent relative abundance (gut microbiome; [2]): −4.391% | Ruminococcaceae change in percent relative abundance (gut microbiome; [2]): −1.494% | Sphingomonadaceae change in percent relative abundance (gut microbiome; [2]): 0.000% | Spirochaetaceae change in percent relative abundance (gut microbiome; [2]): −0.086% | Spiroplasmataceae change in percent relative abundance (gut microbiome; [2]): −0.093% | Staphylococcaceae change in percent relative abundance (gut microbiome; [2]): 0.001% | Thermoanaerobacteraceae change in percent relative abundance (gut microbiome; [2]): −0.010% | Veillonellaceae change in percent relative abundance (gut microbiome; [2]): 0.002% | Verrucomicrobiaceae change in percent relative abundance (gut microbiome; [2]): −0.017% | Xanthomonadaceae change in percent relative abundance (gut microbiome; [2]): 0.000% | increases in Enterococcaceae or Enterobacteriaceae (gut microbiome; [2]): did not lead to increases | mice that maintained Bacteroidaceae (gut microbiome; [2]): 1/5 | mice with decreased Bacteroidaceae (gut microbiome; [2]): 3/5 | mice with increased Bacteroidaceae (gut microbiome; [2]): 1/5 | Bacteroidaceae change in percent relative abundance (gut microbiome; [2]): −8.5% | Streptococcaceae change in percent relative abundance (gut microbiome; [2]): 31.09% | Bacteroidaceae change in percent relative abundance (gut microbiome; [3]): −8.462% | Streptococcaceae change in percent relative abundance (gut microbiome; [3]): 31.098%
